Holding throughout (type): in vivo, mouse
Assay [1] deals with Npc1−/− mice. The assay is described as follows: Survival of Npc1−/− mice (humane end point). The conditions noted are these: for effect on survival / lifespan (in words): Enbrel 200 μg/animal s.c. twice a week, Humira 20 mg/kg three times a week, Remicade 6.25 mg/kg once a week. As to the method:
BALB/c mice with a mutation in the NIH allele of the Niemann Pick type Cl gene (NPCnih) were bred as heterozygotes to produce Npc1−/− (BALB/c npcnih/nih) and control genotypes (Pentchev et al., 1980). Breeding and treatment of mice were conducted as described previously (Smith et al., 2009). The humane end point of mice was defined as a loss of 10% weight within a 24 hour time frame. All procedures were conducted according to Animals (Scientific Procedures) Act 1986 under a valid Home Office License.
(§1) Enbrel® (Amgen, USA) was administered via subcutaneous injection (200 μg/animal; Koca et al., 2008) in phosphate-buffered saline (PBS) twice a week starting at […] of age (n=7). Control group animals (n=7) were administered equal volumes of PBS subcutaneously. Humira® was administered 20 mg/kg three times a week (doses converted from human doses based on differential binding coefficients against murine and human TNF) (n=4) and Remicade® 6.25 mg/kg once a week (Deveci et al., 2008) (n=5).
Upon treatment with […] Enbrel® for twice a week starting at 7 weeks of age, Npc1^−/− mice were weighed weekly until humane end point to monitor any possible effects exerted by drug treatment.

Assay [2] is described as follows: Body weight of Npc1−/− mice, weighed weekly. The conditions noted are these: for effect on body weight (in words): Enbrel 200 μg twice a week, Humira 20 mg/kg three times a week, Remicade 6.25 mg/kg once a week; for body weight relative to initial weight at week 7: p<0.010. On the procedure: as §1
Body weights of individual mice were recorded on a weekly basis. Tremor and locomotor analysis of both treated and control groups were conducted as described by Smith et al. (2009). The procedures are briefly detailed as follows:
Upon treatment with 200 μg Enbrel® for twice a week starting at 7 weeks of age, Npc1^−/− mice were weighed weekly until humane end point to monitor any possible effects exerted by drug treatment.

For assay [3], the system named is Npc1−/− mice. The assay is described as follows: Open field rearing, manual count over 5 minutes (rearing and centre rearing). To be noted: for centre rearing count (no front-limb support) / rearing count (front limb support on side walls): 5 min; for centre rearing count (no front-limb support): Humira 20 mg/kg three times a week; for rearing activity vs. controls (in words): FIG. 4; for rearing count (front limb support on side walls): Remicade 6.25 mg/kg once a week. As to the method: as §1
(§2) Spontaneous activity of each mouse was recorded weekly using both an automated activity monitor (AmLogger; Linton Instrumentation, UK) and manual counting (NPC mice have a jumping phenotype in late stages of disease that can be scored as rears in the automated system so manual counts were included for this reason). The activity monitor comprises an array of infrared beams to determine the activity and motility of the subject animal. After 5-minute acclimatization in the room, each mouse was placed in the ‘open-field’ (a plasticbox measuring 45×25×12 cm) with home cage bedding to be recorded for 5 minutes. A similar setup was used for the open field rearing study, where the number of times the mouse reared on its hind legs (either against the cage wall “rearing” or without support “centre rearing”) was counted manually for 5 minutes.
Activity levels of the mice (Npc1^−/−) were recorded and classified by either “rearing” (FIG. 4A; rearing sustained by front limb support on side walls of the open-field box) or “centre rearing” (FIG. 4B; rearing with no front-limb support). […] In particular, rearing activity was maintained in Enbrel®-treated mice until 10 weeks whilst mice in the control group were no longer able to rear without front limb support (1.71 rears vs. 0.00 rears; p=0.01).

Assay [4] deals with Npc1−/− mice. The assay is described as follows: Gait analysis, CatWalk single paw parameters. To be noted: Enbrel treatment, FIG. 7. On the procedure:
as §1
The CatWalk™ system (Noldus Information Technology, the Netherlands) was used for monitoring changes in movement patterns as indicative of any motor complications and to assess any gait improvement in response to treatment. Animals were subjected to CatWalk™ analysis biweekly, where a minimum of three ‘runs’ were collected per animal. The data collected were subsequently examined by CatWalk™ XT 10.0 software to produce a total of 177 inter-paw and intra-paw comparison parameters.
For this reason, it can be assumed that single paw parameters would reveal more sensitive indications of treatment benefits in the short time frame allowed by this acute disease model.

In assay [5] the test system is Npc1−/− mice. In words: Locomotor activity, AmLogger automated activity monitor. The conditions noted are these: Enbrel 200 μg twice a week. On the procedure:
as §1, §2

[6] abbreviates: 9 weeks, mean±SEM, Enbrel 200 μg twice a week, control 0.429±0.30.
Setting [7] is: 10 weeks, Enbrel 200 μg twice a week, control 0.00.

Several values for one entry are separate records, joined by “and”; a condition that tells them apart may be missing. Equal values may be shown once. Entries after “also recorded” stand apart in the source; their conditions may differ.

As for Adalimumab [Humira], the “effect on survival / lifespan (in words)” value in the assay on Npc1−/− mice [1] was “Neither did Humira® or Remicade® impact mice survival”. Moreover, the “effect on body weight (in words)” value in assay [2] was “did not impact mice weight”. Moreover, the “centre rearing count (no front-limb support)” value was determined as 10.00±3.58 rears in the assay on Npc1−/− mice [3] (8 weeks, mean±SEM, vs. 2.00±1.35, p=0.033); 8.25±2.84 rears in the assay with Npc1−/− mice [3] (setting [6]); 0.00 rears in the assay on Npc1−/− mice [3] (setting [7]). In addition, the “centre rearing vs. controls and other treatments (in words)” value with Npc1−/− mice [3] (open field, FIG. 4B) is “more effective amongst the other treatments starting from 8 weeks; also recorded: sustained rearing activity beyond all control groups at later time points”.
On to Etanercept [Enbrel], for which, in the assay with Npc1−/− mice [1], the “effect on survival / lifespan (in words)” value is listed as “did not cause any significant difference in lifespan”. The same substance came in with a lifespan in the assay on Npc1−/− mice [1] (Enbrel 200 μg/animal twice a week starting at 7 weeks of age, vs. 11.72±0.59 weeks, p=0.4840) of 11.26±0.09 weeks. The “body weight relative to initial weight at 7 weeks” value in assay [2] (200 μg Enbrel twice a week, time point not stated, vs. 87.46%, p=0.7270) was 89.03%. In addition, in assay [2], the “effect on body weight (in words)” value is reported as “did not cause any significant difference in body weights”. The “centre rearing count (no front-limb support)” value in the assay with Npc1−/− mice [3] (setting [6]) was 1.71±0.61 rears; in the assay with Npc1−/− mice [3] (setting [7]), 1.71 rears and 1.71±0.57 rears. In addition, in the assay with Npc1−/− mice [3] (open field), the “rearing activity vs. controls (in words)” value is given as “displayed a higher level of rearing activity than control mice”. In addition, the “single paw gait parameters (in words)” value in the assay with Npc1−/− mice [4] is “beneficial effects”. Also, the “time spent in rearing” value with Npc1−/− mice [5] (8 weeks, 5 min recording, vs. 3.29±1.775, p=0.0447) is 16.86 ± 5.79 s. For the same substance, in the assay with Npc1−/− mice [5] (9 weeks, 5 min recording, vs. 143.43±17.625, p=0.0497), the “time spent in an active state” value was 208.14 ± 23.85 s. Further, the “activity parameters vs. vehicle treated control (in words)” value in the assay on Npc1−/− mice [5] (FIG. 6) is “displayed higher activity levels; also recorded: induced higher levels of activity parameters”.
Turning to Infliximab [Remicade], the “effect on survival / lifespan (in words)” value with Npc1−/− mice [1] is recorded as “Neither did Humira® or Remicade® impact mice survival”. In addition, the “effect on body weight (in words)” value in assay [2] is “caused significant weight loss at weeks 8 and 9”. The “body weight relative to initial weight at week 7” value in assay [2] (week 8, Remicade 6.25 mg/kg once a week, vs. 101.31%) was found to be 89.11%; in assay [2] (week 9, Remicade 6.25 mg/kg once a week, vs. 97.16%), 80.84%. Further, the “rearing count (front limb support on side walls)” value with Npc1−/− mice [3] (8 weeks, mean±SEM, vs. 2.86±1.03, p=0.034) is on record as 7.80±1.71 rears; in the assay on Npc1−/− mice [3] (9 weeks, mean±SEM, vs. 2.00±2.52, p=0.039) it was 7.20±2.27 rears. Further, the “rearing activity vs. controls (in words)” value in the assay on Npc1−/− mice [3] (open field) is “sustained level of rearing activity starting from 7 weeks, higher than the two control groups (untreated and s.c. injected) and maintained up to 12 weeks”.
